Measurements reported in patent publication US20080195024A1, “Treating Disorders Associated with Inflammation” (priority 2005, published 2008).

What was measured:
casein = test: Protease activity measurement (Enzcheck casein kit) of proteases, homogenates and luminal fluids; type: biochemical; details: mixed with equal volume of PBS; fluorescence after 90 minutes; mean±SD, N=6
Experimental: In vitro studies of intestinal wall homogenate digested with proteases—enzymatic digestion of wall homogenates: Wall homogenates were rapidly thawed at 37° C. and mixed with equal volumes of PBS, TPCK-treated trypsin, TLCK-treated chymotrypsin, or elastase. Controls of the proteases alone also were created by mixing them with equal volumes of PBS. Since lower grades of trypsin are often contaminated with the activity of chymotrypsin and vice versa, trypsin pretreated with TPCK (a specific chymotrypsin inhibitor) and chymotrypsin pretreated with TLCK (a trypsin inhibitor) were used to reduce any effects of cross contamination. Before mixing with wall homogenate, the enzymes were reconstituted in PBS at the following concentrations: 1 mg/ml for TPCK-treated trypsin, 1 mg/ml for TLCK-treated chymotrypsin, and 0.5 mg/ml for elastase.
The groups were treated as follows: the luminal fluids from 5 animals were incubated separately (37° C., 3 hours) and aliquots of each sample were collected. One aliquot was filtered through 4 glass fiber pre-filters in series. The unfiltered and filtered aliquots were mixed with equal volumes of PBS (to generate the Lumen and Filtered Lumen groups, respectively) or with wall homogenate from the same animal (to generate the Wall+Lumen and Wall+Filtered Lumen groups, respectively). The Wall group was prepared by mixing wall homogenates with equal volumes of PBS. All samples were incubated at 37° C. for 3 additional hours, aliquotted, and frozen (−70° C.) for later evaluation of neutrophil cytotoxicity and protease activity.

human neutrophils = test: Flow cytometric analysis of neutrophil cytotoxicity (PI cell death, forward scatter); type: cell-based; details: for increase in forward scatter: pancreatic proteases alone; for cytotoxicity to neutrophils: pure proteases at the tested concentrations
Experimental: Cytotoxicity measurement—flow cytometric analysis of neutrophil cytotoxicity: For measurements of cell death and forward scatter (a measure of cell “size”) by flow cytometry, 100 μl of sample were mixed with 100 μl of cells (10^6 cells/ml final) and after selected periods of incubation, a life/death indicator (200 μl of 2 μM propidium iodide, PI) was added. Within seconds of PI addition, the sample was tested in a flow cytometer (Beckton-Dickson FACScan; Franklin Lakes N.J.).
Flow cytometric analysis of neutrophils was carried out by plotting forward scatter (FSC) on the ordinate and FL-2 (PI fluorescence) on the abscissa. […] Two regions on the scatter plot were gated. Region 1 (R1) was for live cells, and was constructed to monitor an increase in cell size that results from bleb formation and also to observe the small uptake of PI that occur may prior to total membrane failure. […] Ten thousand cells were evaluated per sample. Cell death was reported as the percentage of total cells located in R2, i.e., Death=100%*(# in R2)/(# in R1+# in R2).

[1] = tested on: digestive enzymes in luminal contents; test: Protease activity of wall homogenates digested with filtered luminal fluid with or without protease inhibitors; type: biochemical, rat; details: filtered luminal fluid plus inhibitor incubated with wall homogenates 3 hours at 37° C.; final 1 mM PMSF, 1.25 mg/ml (2.31 mM) ANGD
Source text: (§1) To determine if enzyme inhibition could prevent the generation of cytotoxic mediators from luminal contents, luminal fluids were pre-filtered through three glass fiber filters in series, a procedure that reduces cytotoxic activity, allowing the experiments to be focused solely on new cytotoxic mediator formation. […] The precipitate was separated following the digestion period and the supernatant collected. All samples were then aliquotted and frozen for later measurements of protease activity and neutrophil cytotoxicity.

[2] = Solubility of ANGD in luminal fluid; type: physicochemical; details: with or without glucose; white precipitate formed
Source text: as §1

[3] = wall homogenates digested with filtered luminal fluid with inhibitor, exposure 20, 30 or 40 minutes

Compound	protease activity (casein)	increase in forward scatter (human neutrophils)	cytotoxicity to neutrophils (human neutrophils)	protease activity inhibited in the digested homogenates [1]	neutrophil cell death (human neutrophils; [3])	neutrophil forward scatter (human neutrophils; [3])	solubility in the luminal fluid [2]	cytotoxicity compared to samples without PMSF (human neutrophils; PMSF added after digestion of wall homogenate by chymotrypsin, not statistically significant)	neutrophil cell death (human neutrophils; PMSF added prior to digestion of wall homogenate by chymotrypsin)
elastase: pancreatic elastase from Worthington Biochemicals, 0.5 mg/ml in PBS	2389±300 RFU	greatest increase	not cytotoxic	–	–	–	–	–	–
trypsin	300±33 RFU	no significant effect	not cytotoxic	–	–	–	–	–	–
CS(=O)(=O)O.CS(=O)(=O)O.N=C(N)Nc1ccc(C(=O)Oc2ccc3cc(C(=N)N)ccc3c2)cc1 [ANGD, 6-amidino-2-naphthyl p-guanidinobenzoate dimethanesulfonate]	–	–	–	less effective	significantly decrease the cell death compared to controls	prevented the large increase in forward scatter	not completely soluble	–	–
chymotrypsin	2371±230 RFU	significantly elevated at 90 minutes	not cytotoxic	–	–	–	–	–	–
O=S(=O)(F)Cc1ccccc1 [PMSF, phenylmethylsulfonyl fluoride]	–	–	–	approximately half	Neither PMSF nor ANGD alone entirely prevented cell death	–	–	slightly increased cytotoxicity	no cell death
